From patent US6525178B2, “PGC-1, a novel brown fat PPARgamma coactivator” (Dana-Farber Cancer Institute, priority 1997, dated 2003) come the findings set out here.

The target of one assay is T1, retinoic acid receptor (Homo sapiens, UniProt P10276).
T1 sequence (P10276 1-462): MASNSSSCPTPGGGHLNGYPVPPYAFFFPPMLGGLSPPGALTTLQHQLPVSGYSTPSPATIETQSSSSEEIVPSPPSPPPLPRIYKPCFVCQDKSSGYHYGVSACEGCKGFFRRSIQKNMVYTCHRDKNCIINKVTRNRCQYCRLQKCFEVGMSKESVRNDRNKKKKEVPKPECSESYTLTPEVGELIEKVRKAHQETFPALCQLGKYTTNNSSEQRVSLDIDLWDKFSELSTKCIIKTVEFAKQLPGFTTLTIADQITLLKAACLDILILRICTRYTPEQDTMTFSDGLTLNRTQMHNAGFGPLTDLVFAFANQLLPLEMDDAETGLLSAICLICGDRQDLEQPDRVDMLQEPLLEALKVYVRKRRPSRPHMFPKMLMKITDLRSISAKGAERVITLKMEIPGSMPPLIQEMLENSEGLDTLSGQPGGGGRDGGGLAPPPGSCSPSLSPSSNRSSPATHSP
T1 sequence (O70343 36-797 partner limits assumed): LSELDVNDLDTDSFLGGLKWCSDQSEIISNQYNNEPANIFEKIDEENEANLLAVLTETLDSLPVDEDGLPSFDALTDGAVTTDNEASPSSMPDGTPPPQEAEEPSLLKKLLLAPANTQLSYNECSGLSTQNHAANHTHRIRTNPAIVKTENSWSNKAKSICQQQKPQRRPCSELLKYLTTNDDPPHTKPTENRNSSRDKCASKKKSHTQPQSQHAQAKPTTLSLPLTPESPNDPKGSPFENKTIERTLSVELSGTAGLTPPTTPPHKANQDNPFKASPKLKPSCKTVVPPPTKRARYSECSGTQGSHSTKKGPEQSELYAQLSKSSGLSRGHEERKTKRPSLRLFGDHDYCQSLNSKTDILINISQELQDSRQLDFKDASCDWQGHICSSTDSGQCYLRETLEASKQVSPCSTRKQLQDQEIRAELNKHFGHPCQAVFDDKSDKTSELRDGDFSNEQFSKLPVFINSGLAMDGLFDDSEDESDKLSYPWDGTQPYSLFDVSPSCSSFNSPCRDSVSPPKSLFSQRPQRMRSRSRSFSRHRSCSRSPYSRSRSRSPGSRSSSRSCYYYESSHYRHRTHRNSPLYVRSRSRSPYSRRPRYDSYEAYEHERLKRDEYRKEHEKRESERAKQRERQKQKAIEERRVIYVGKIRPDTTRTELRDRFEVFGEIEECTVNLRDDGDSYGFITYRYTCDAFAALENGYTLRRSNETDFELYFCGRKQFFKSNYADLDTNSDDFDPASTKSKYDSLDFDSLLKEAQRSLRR
Kind of assay: In vitro binding of GST-PGC-1 to in vitro-translated nuclear receptor. To be noted: ligand 1 μM.

A further assay deals with T2, PPARδ (Homo sapiens, UniProt Q03181).
T2 construct: made in house; host or cells: receptor: reticulocyte lysate in vitro translation (Promega TNT); GST-PGC-1: E. coli
T2 sequence (Q03181 1-441): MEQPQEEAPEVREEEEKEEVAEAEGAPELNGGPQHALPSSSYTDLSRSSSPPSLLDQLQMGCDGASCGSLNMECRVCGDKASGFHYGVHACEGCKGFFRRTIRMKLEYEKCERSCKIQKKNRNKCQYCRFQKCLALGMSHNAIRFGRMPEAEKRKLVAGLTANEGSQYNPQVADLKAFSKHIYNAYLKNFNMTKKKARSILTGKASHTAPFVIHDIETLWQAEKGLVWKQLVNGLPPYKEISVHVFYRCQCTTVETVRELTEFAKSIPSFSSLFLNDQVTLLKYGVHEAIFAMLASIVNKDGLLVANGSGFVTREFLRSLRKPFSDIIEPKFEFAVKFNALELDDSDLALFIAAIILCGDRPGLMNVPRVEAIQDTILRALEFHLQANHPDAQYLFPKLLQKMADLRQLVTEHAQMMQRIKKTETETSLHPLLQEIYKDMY
T2 sequence (O70343 36-797 partner limits assumed): T1 sequence (O70343 36-797 partner limits assumed)
Described as above. To be noted: ligand 1 μM. The protocol: (§1) The assays were carried out as follows.

The test system of another assay is HIB 1B brown fat cells. Kind of assay: Northern analysis of PGC-1 and UCP-1 mRNA in treated HIB 1B brown fat cells. It counts as cell-based, mouse. The note with it: HIB 1B cells, 1 μM, 10 hr. The text has this: Cold is sensed in the central nervous system and results in increased sympathetic output to peripheral tissues, including muscle and brown fat Himms-Hagen (1989) Can. J. Physiol Pharmcol. 67:394-401). Cold exposure can be mimicked, in terms of brown adipocyte precursor cell growth and the induction of UCP-1, by exposure of cultured brown fat cells to β-adrenergic agonists (Rehnmark et al. (1990) J. Biol. Chem. 25:16464-16471). To determine if PGC-1 gene expression is also sensitive to β-adrenergic agonists, HIB 1B brown fat cells were treated with isoproterenol (1 μM), a nonsubtype selective β agonist, for 10 hr. Total cellular RNA was isolated and analyzed using PGC-1 and UCP-1 cDNA probes.
Briefly, HIB 1B brown fat preadipocytes were differentiated as described herein. After 6 days, cells were approximately 80% differentiated.

The next assay deals with T3, PPARα (Homo sapiens, UniProt Q07869).
T3 construct: made in house; host or cells: receptor: reticulocyte lysate in vitro translation (Promega TNT); GST-PGC-1: E. coli
T3 sequence (Q07869 1-468): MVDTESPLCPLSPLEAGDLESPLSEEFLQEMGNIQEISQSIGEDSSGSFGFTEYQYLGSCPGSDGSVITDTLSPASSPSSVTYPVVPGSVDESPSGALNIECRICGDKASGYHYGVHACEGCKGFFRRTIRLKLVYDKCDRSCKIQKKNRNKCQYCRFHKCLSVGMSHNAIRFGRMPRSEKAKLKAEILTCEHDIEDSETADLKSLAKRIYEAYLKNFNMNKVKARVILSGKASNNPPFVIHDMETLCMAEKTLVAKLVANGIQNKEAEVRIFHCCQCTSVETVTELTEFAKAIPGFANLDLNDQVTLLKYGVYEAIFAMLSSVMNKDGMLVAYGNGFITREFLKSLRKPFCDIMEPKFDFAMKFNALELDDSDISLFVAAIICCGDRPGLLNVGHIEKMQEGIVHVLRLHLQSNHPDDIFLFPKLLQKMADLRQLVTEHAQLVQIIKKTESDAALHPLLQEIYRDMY
T3 sequence (O70343 36-797 partner limits assumed): T1 sequence (O70343 36-797 partner limits assumed)
Kind of assay: In vitro binding of GST-PGC-1 to in vitro-translated nuclear receptor. To be noted: ligand 1 μM. The procedure:
as §1

For the next assay, the system named is PPARγ. Kind of assay: Binding of in vitro-translated PGC-1 C-terminal deletions to immobilized PPARγ fusion protein. Also noted: species or system mouse. To be noted: 35S-labelled PGC-1 deletions. The text has this: The interaction between nuclear receptors and certain coactivators such as SRC-1 or CBP is ligand dependent (Kamai et al. (1996) Cell 84:403-414) and involves an LXXLL (SEQ ID NO:3) motif in the coactivators and the C-terminal AF-2 domain in the receptors (Heery et al. (1997) Nature 387:733-736; Torchia et al. (1997) Nature 387:677-684). To identify the domains responsible for PGC-1-PPARγ interactions, different C-terminal deletions of PGC-1 were generated as reticulocyte translation products and mixed with a […] fusion protein. Deletions of PGC-1 were made using specific restriction sites in the PGC-1 cDNA closed in pBluescript. The following restriction enzymes were used for these deletions: full-length Xhol (aa-1-797), Haell (aa 1-675) Ncol (aa 1-503), Xbal (aa 1-403), Kpnl (aa 1-338), and Stul (aa 1-292). These were then translated into vitro with an [^35S]methionine-label. One microliter of each in vitro translation reaction was resolved by SDS-PAGE and autoradiographed.
Sequence of PPARγ (P37238 183-505 limits assumed): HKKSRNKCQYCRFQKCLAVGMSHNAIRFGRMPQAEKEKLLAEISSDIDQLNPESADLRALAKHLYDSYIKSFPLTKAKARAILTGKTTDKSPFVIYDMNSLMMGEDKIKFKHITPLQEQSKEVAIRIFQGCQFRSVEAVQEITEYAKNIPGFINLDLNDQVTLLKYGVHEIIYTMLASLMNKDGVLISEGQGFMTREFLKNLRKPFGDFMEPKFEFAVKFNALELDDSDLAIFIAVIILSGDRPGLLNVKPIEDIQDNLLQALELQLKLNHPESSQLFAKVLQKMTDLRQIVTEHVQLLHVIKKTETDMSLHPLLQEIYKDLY
FIG. 4 summarizes the input of both the full-length PGC-1(1-797) and the 1-675 deletion which bind to the immobilized PPARγ.

Procedure for retinoic acid receptor: These fusion proteins were expressed, and purified from E. coli on beads containing approximately 1 μg of protein (either GST, or alone, or fused to PGC-1), 30 μl was resuspended i the binding buffer (20 mM HEPES [pH 7.7], 75 mM KCl, 0.1 mM EDTA, 2.5 mM MgCl2, 0.05% NP40,2 mM DTT, 10% glycerol).
The assays were carried out as follows. […] After electrophoresis, fixation, and enhancement, the radiolabeled proteins were visualized by autoradiography.

Consider `CC1=C(/C=C/C(C)=C/C=C/C(C)=C/C(=O)O)C(C)(C)CCC1` [all-trans retinoic acid], for which the “ligand dependency of PGC-1 interaction with the retinoic acid receptor” value on retinoic acid receptor is “strong ligand dependency”.

As to `CCCCC[C@H](O)/C=C/[C@@H]1[C@H]2C/C(=C/CCCC(=O)O)C[C@H]2C[C@H]1O` [carboprostacyclin], the “ligand dependency of PGC-1 interaction with PPARδ” value on PPARδ is listed as “slight ligand dependency”.

As to `CC(C)NCC(O)c1ccc(O)c(O)c1` (stereo not shown) [isoproterenol], in the assay on HIB 1B brown fat cells, the “PGC-1 mRNA” value is recorded as “sharp increase” and the “UCP-1 mRNA” value is “sharp increase”.

Take `CCCCC/C=C\C[C@@H](O)/C=C/C=C/C=C\[C@@H](O)CCCC(=O)O` [leukotriene-4]: the “ligand dependency of PGC-1 interaction with PPARα” value on PPARα is recorded as “slight ligand dependency”.

B1: PGC-1 1-292: C-terminal deletion of PGC-1, aa 1-292, still contains the LXXLL motif (protein)
chain: MAWDMCSQDSVWSDIECAALVGEDQPLCPDLPELDLSELDVNDLDTDSFLGGLKWCSDQSEIISNQYNNEPANIFEKIDEENEANLLAVLTETLDSLPVDEDGLPSFDALTDGAVTTDNEASPSSMPDGTPPPQEAEEPSLLKKLLLAPANTQLSYNECSGLSTQNHAANHTHRIRTNPAIVKTENSWSNKAKSICQQQKPQRRPCSELLKYLTTNDDPPHTKPTENRNSSRDKCASKKKSHTQPQSQHAQAKPTTLSLPLTPESPNDPKGSPFENKTIERTLSVELSGTAG
For the molecule B1, the “percentage of input material that bound to PPARγ” value in the assay on PPARγ was “completely loses the ability to interact with PPARγ”.

B2: PGC-1 1-503: C-terminal deletion of PGC-1, aa 1-503, lacks the SR and RNA-binding domains (protein)
chain: MAWDMCSQDSVWSDIECAALVGEDQPLCPDLPELDLSELDVNDLDTDSFLGGLKWCSDQSEIISNQYNNEPANIFEKIDEENEANLLAVLTETLDSLPVDEDGLPSFDALTDGAVTTDNEASPSSMPDGTPPPQEAEEPSLLKKLLLAPANTQLSYNECSGLSTQNHAANHTHRIRTNPAIVKTENSWSNKAKSICQQQKPQRRPCSELLKYLTTNDDPPHTKPTENRNSSRDKCASKKKSHTQPQSQHAQAKPTTLSLPLTPESPNDPKGSPFENKTIERTLSVELSGTAGLTPPTTPPHKANQDNPFKASPKLKPSCKTVVPPPTKRARYSECSGTQGSHSTKKGPEQSELYAQLSKSSGLSRGHEERKTKRPSLRLFGDHDYCQSLNSKTDILINISQELQDSRQLDFKDASCDWQGHICSSTDSGQCYLRETLEASKQVSPCSTRKQLQDQEIRAELNKHFGHPCQAVFDDKSDKTSELRDGDFSNEQFSKLPVFINSG
As for B2, the “percentage of input material that bound to PPARγ” value in the assay with PPARγ was determined as 18%.
